Reference: patent US11377442B2, “Small molecule agonists and antagonists of NR2F6 activity” (ZANDER THERAPEUTICS, INC., priority 2016, dated 2022)
Where two headings read alike, the source gives them in different places.

How the values were obtained:
pH stability = format: physicochemical
HEK293 pGL4 = assay: Firefly_pGL signal, cmpd/DMSO (pGL4 control cells); format: cell-based; details: Homo sapiens
NR2F6 = molecular target: T1, NR2F6 (Homo sapiens, UniProt P10588); assay: NR2F6 agonist screening, Firefly signal cmpd/DMSO; format: cell-based
T1 construct: expressed in transfected cells; also transient transfection
T1 sequence (P10588 1-404): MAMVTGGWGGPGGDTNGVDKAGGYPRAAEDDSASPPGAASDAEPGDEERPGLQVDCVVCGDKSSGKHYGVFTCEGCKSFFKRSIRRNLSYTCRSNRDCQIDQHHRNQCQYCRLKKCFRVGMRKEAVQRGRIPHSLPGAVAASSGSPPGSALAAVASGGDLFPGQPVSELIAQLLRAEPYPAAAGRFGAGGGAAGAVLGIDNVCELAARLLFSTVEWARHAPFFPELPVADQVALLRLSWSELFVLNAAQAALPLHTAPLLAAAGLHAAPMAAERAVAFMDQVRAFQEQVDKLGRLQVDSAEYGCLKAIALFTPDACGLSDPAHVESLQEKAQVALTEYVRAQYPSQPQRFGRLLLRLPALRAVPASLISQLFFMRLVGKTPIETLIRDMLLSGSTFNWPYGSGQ

Renilla [1] = assay: Renilla signal in NR2F6 agonist screening, cmpd/DMSO; format: cell-based; details: Renilla
Renilla [2] = assay: Renilla signal, LBD, cmpd/DMSO (NR2F6 LBD transfected cells); format: cell-based
NR2F6 LBD = molecular target: T2, NR2F6 LBD (Homo sapiens, UniProt P10588); assay: NR2F6 LBD transient transfection; format: cell-based
T2 construct: expressed in transfected cells
T2 sequence (P10588 165-393 limits assumed): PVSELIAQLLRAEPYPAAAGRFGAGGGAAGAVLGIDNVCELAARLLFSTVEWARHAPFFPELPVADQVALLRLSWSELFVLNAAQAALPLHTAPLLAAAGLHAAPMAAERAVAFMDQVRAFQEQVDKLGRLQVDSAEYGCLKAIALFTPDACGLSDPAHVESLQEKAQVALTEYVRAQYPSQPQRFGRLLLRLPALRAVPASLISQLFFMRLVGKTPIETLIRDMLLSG
Procedure, shortened: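 LBD-transfected cells treated at 40, 10, 2 and 0.5 μM (4 replicates); cytotoxicity measured in parallel, normalized to DMSO (0%) and zero signal (100%). Higher concentrations excluded where signal loss reflected toxicity.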

[3] = read-out: Renilla F4, cmpd/DMSO (mean)
[4] = F4, 1% FBS, read-out: Renilla, F4, 1% FBS, cmpd/DMSO (mean)
[5] = F4, 10% FBS, read-out: Renilla, F4, 10% FBS, cmpd/DMSO (mean)

## COCCN[C@H]1CS(=O)(=O)C[C@@H]1S(=O)(=O)c1ccc(Cl)cc1 [Compound D136]
pH stability; pH2
  pH stability at pH2: extremely stable
pH stability; pH7
  pH stability at pH7: extremely stable
HEK293 pGL4; HEK293, 0.5 uM, read-out: Firefly pGL4, cmpd/DMSO (mean)
  fold induction at 0.5 µM: 1.1
HEK293 pGL4; HEK293, 2 uM, read-out: Firefly pGL4, cmpd/DMSO (mean)
  fold induction at 2 µM: 1
HEK293 pGL4; HEK293, 10 uM, read-out: Firefly pGL4, cmpd/DMSO (mean)
  fold induction at 10 µM: 1.8
HEK293 pGL4; HEK293, 40 uM, read-out: Firefly pGL4, cmpd/DMSO (mean)
  fold induction at 40 µM: 2.6
HEK293 pGL4; HEK293, pGL4, 1% FBS, 0.5 uM, read-out: Firefly, pGL4, 1% FBS, cmpd/DMSO (mean)
  fold induction at 0.5 µM: 1.1
HEK293 pGL4; HEK293, pGL4, 1% FBS, 2 uM, read-out: Firefly, pGL4, 1% FBS, cmpd/DMSO (mean)
  fold induction at 2 µM: 0.9
HEK293 pGL4; HEK293, pGL4, 1% FBS, 10 uM, read-out: Firefly, pGL4, 1% FBS, cmpd/DMSO (mean)
  fold induction at 10 µM: 1.3
HEK293 pGL4; HEK293, pGL4, 1% FBS, 40 uM, read-out: Firefly, pGL4, 1% FBS, cmpd/DMSO (mean)
  fold induction at 40 µM: 1.6
HEK293 pGL4; HEK293, pGL4, 10% FBS, 0.5 uM, read-out: Firefly, pGL4, 10% FBS, cmpd/DMSO (mean)
  fold induction at 0.5 µM: 1.3
HEK293 pGL4; HEK293, pGL4, 10% FBS, 2 uM, read-out: Firefly, pGL4, 10% FBS, cmpd/DMSO (mean)
  fold induction at 2 µM: 1.1
HEK293 pGL4; HEK293, pGL4, 10% FBS, 10 uM, read-out: Firefly, pGL4, 10% FBS, cmpd/DMSO (mean)
  fold induction at 10 µM: 1.8
HEK293 pGL4; HEK293, pGL4, 10% FBS, 40 uM, read-out: Firefly, pGL4, 10% FBS, cmpd/DMSO (mean)
  fold induction at 40 µM: 3.8
NR2F6; 0.5 uM
  Firefly F4, cmpd/DMSO (mean): 1.5
NR2F6; 2 uM
  Firefly F4, cmpd/DMSO (mean): 1.1
NR2F6; 10 uM
  Firefly F4, cmpd/DMSO (mean): 2.7
NR2F6; 40 uM
  Firefly F4, cmpd/DMSO (mean): 5.2
NR2F6; 1% FBS, 40 uM
  F4, Firefly/Renilla for S/B(F4) > 3: 3.1
  Firefly, F4/pGL4 for S/B(F4) > 3: 4.7
  Firefly, F4, 1% FBS, cmpd/DMSO (mean): 7.4
NR2F6; 10% FBS, 40 uM
  F4, Firefly/Renilla for S/B(F4) > 3: 3.5
  Firefly, F4/pGL4 for S/B(F4) > 3: 3.0
  Firefly, F4, 10% FBS, cmpd/DMSO (mean): 12
NR2F6; 1% FBS, 0.5 uM
  Firefly, F4, 1% FBS, cmpd/DMSO (mean): 0.8
NR2F6; 1% FBS, 2 uM
  Firefly, F4, 1% FBS, cmpd/DMSO (mean): 1.0
NR2F6; 1% FBS, 10 uM
  Firefly, F4, 1% FBS, cmpd/DMSO (mean): 2.4
NR2F6; 10% FBS, 0.5 uM
  Firefly, F4, 10% FBS, cmpd/DMSO (mean): 0.4
NR2F6; 10% FBS, 2 uM
  Firefly, F4, 10% FBS, cmpd/DMSO (mean): 1.4
NR2F6; 10% FBS, 10 uM
  Firefly, F4, 10% FBS, cmpd/DMSO (mean): 1.9
NR2F6; cellular assays
  activation of full-length NR2F6: Activates
Renilla [1]; [3]
  fold induction at 0.5 µM: 0.9
  fold induction at 2 µM: 1.1
  fold induction at 10 µM: 1.4
  fold induction at 40 µM: 1.7
Renilla [1]; [4]
  fold induction at 0.5 µM: 1.1
  fold induction at 2 µM: 1.1
  fold induction at 10 µM: 1.5
  fold induction at 40 µM: 2.4
Renilla [1]; [5]
  fold induction at 0.5 µM: 0.9
  fold induction at 2 µM: 0.9
  fold induction at 10 µM: 1.2
  fold induction at 40 µM: 3.3
Renilla [2]; 0.5 uM
  Renilla LBD, cmpd/DMSO (mean): 1.1
Renilla [2]; 2 uM
  Renilla LBD, cmpd/DMSO (mean): 1.0
Renilla [2]; 10 uM
  Renilla LBD, cmpd/DMSO (mean): 1.0
Renilla [2]; 40 uM
  Renilla LBD, cmpd/DMSO (mean): 0.6
NR2F6 LBD; 0.5 uM
  Firefly LBD, cmpd/DMSO (mean): 1.0
NR2F6 LBD; 2 uM
  Firefly LBD, cmpd/DMSO (mean): 1.5
NR2F6 LBD; 10 uM
  Firefly LBD, cmpd/DMSO (mean): 2.6
NR2F6 LBD; 40 uM
  Firefly LBD, cmpd/DMSO (mean): 2.9
NR2F6 LBD; cellular assays
  activation of ligand binding domain-only NR2F6: Activates
